We go through 31 compounds from patent US12252488B2 (Nimbus Saturn, Inc., priority 2021, dated 2025).

This assay deals with T1, HPK1 (Homo sapiens, UniProt Q92918).
T1 construct: purchased Invitrogen
T1 sequence (Q92918 whole entry): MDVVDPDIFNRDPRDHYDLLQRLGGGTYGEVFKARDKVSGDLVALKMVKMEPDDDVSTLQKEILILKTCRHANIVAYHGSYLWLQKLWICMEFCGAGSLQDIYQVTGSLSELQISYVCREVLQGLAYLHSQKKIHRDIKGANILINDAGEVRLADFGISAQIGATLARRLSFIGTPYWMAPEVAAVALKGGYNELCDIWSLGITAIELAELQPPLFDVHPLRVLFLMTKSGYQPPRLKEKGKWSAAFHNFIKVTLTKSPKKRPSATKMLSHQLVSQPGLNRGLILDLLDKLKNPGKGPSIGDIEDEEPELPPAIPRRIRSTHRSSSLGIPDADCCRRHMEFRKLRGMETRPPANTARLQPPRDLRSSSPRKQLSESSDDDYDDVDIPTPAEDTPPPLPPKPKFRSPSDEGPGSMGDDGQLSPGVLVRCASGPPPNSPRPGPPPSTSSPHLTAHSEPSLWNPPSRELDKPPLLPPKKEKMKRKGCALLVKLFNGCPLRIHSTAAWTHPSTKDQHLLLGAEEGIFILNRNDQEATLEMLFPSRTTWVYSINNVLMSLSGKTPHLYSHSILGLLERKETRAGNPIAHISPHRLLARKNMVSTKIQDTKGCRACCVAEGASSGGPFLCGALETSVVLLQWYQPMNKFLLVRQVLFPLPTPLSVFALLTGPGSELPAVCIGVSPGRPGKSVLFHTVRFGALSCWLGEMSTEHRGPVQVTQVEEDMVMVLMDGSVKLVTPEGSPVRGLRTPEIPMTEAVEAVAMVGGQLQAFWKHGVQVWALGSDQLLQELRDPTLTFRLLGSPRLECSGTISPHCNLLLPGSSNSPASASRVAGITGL
Put plainly: HPK1 biochemical enzyme assay (microfluidic mobility shift assay). The settings on record: 1000 uM (1 mM) ATP; Caliper mobility shift; 1.5 nM HPK1; 30 min preincubation; read-out: HPK1 1000UMATP caliper IC50. The procedure:
Example 33. HPK1 Biochemical Enzyme Assay
HPK1 biochemical enzyme assay: HPK1 enzyme inhibition was measured using a microfluidic mobility shift assay. Reactions were performed in a 384-well plate, containing 1.5 nM HPK1 (Invitrogen), in assay buffer (Carna Biosciences; pH 7.4). Test compounds were titrated in ten point curves (top final assay concentration 3 μM), and preincubated with enzyme/substrate mix for 30 min prior to initiation of the reaction by addition of ATP (1 mM final concentration) and substrate (1 μM final concentration; Carna Biosciences) diluted in assay buffer supplemented by MgCl2 (final assay concentration of 5 mM). Following 60 min incubation at RT, the reaction was terminated by addition of 60 μl/well termination buffer (Carna Biosciences) and signal determination using a Caliper EZ Reader (Perkin Elmer, UK).
The compound numbers correspond to the compound numbers in Table 1. Compounds having an activity designated as “A” provided an IC50≤100 nM; compounds having an activity designated as “B” provided an IC50>100 nM and ≤1,000 nM; compounds having an activity designated as “C” provided an IC50>1,000 nM.
In the case of `O=c1[nH]ccc2nc(-c3ccccc3F)cc(Nc3ccc(N4CCC(O)CC4)cn3)c12` [I-64, 2-(2-fluoro-phenyl)-4-[[5-(4-hydroxy-1-piperidyl)-2-pyridyl]amino]-6H-1,6-naphthyridin-5-one], the IC50 (as a rule, the point on the concentration scale where inhibition reaches its midpoint) was in the range of 100 to 1000 nM.

With `COc1cccc(-c2cc(Nc3ccc(N4CCC(O)CC4)cn3)c3c(=O)[nH]ccc3n2)c1F` [I-65, 2-(2-fluoro-3-methoxy-phenyl)-4-[[5-(4-hydroxy-1-piperidyl)-2-pyridyl]amino]-6H-1,6-naphthyridin-5-one], the concentration for half-maximal inhibition (IC50) was 100 to 1000 nM.

For `CCOc1ccc(F)c(-c2cc(Nc3ccc(N4CCC(O)CC4)cn3)c3c(=O)[nH]ccc3n2)c1` [I-66, 2-(5-ethoxy-2-fluoro-phenyl)-4-[[5-(4-hydroxy-1-piperidyl)-2-pyridyl]amino]-6H-1,6-naphthyridin-5-one], the IC50 fell in the range of 100 to 1000 nM.

Turning to `CC(C)Oc1ccc(F)c(-c2cc(Nc3ccc(N4CCC(O)CC4)cn3)c3c(=O)[nH]ccc3n2)c1` [I-67, 2-(2-fluoro-5-isopropoxy-phenyl)-4-[[5-(4-hydroxy-1-piperidyl)-2-pyridyl]amino]-6H-1,6-naphthyridin-5-one], the IC50 fell in the range of 100 to 1000 nM.

Turning to `Cc1cccc(-c2cc(Nc3ccc(N4CCC(O)CC4)cn3)c3c(=O)[nH]ccc3n2)c1F` [I-68, 2-(2-fluoro-3-methyl-phenyl)-4-[[5-(4-hydroxy-1-piperidyl)-2-pyridyl]amino]-6H-1,6-naphthyridin-5-one], the IC50 fell in the range of 100 to 1000 nM.

Consider `CC(C)(O)c1ccc(-c2cc(Nc3ccc(N4CCC(O)CC4)cn3)c3c(=O)[nH]ccc3n2)c(F)c1` [I-69, 2-[2-fluoro-4-(1-hydroxy-1-methyl-ethyl)phenyl]-4-[[5-(4-hydroxy-1-piperidyl)-2-pyridyl]amino]-6H-1,6-naphthyridin-5-one], for which the IC50 lay in the range of 100 to 1000 nM.

For `CNC(=O)c1ccc(-c2cc(Nc3ccc(N4CCC(O)CC4)cn3)c3c(=O)[nH]ccc3n2)c(F)c1` [I-70, 3-fluoro-4-[4-[[5-(4-hydroxy-1-piperidyl)-2-pyridyl]amino]-5-oxo-6H-1,6-naphthyridin-2-yl]-N-methyl-benzamide], the half-maximal inhibitory concentration (IC50) is 100 to 1000 nM.

Regarding `O=C(c1ccc(-c2cc(Nc3ccc(N4CCC(O)CC4)cn3)c3c(=O)[nH]ccc3n2)c(F)c1)N1CCCCC1` [I-71, 2-[2-fluoro-4-(piperidine-1-carbonyl)phenyl]-4-[[5-(4-hydroxy-1-piperidyl)-2-pyridyl]amino]-6H-1,6-naphthyridin 5-one], the IC50 fell in the range of 100 to 1000 nM.

In the case of `NC(=O)c1ccc(-c2cc(Nc3ccc(N4CCC(O)CC4)cn3)c3c(=O)[nH]ccc3n2)c(F)c1` [I-72, 3-fluoro-4-[4-[[5-(4-hydroxy-1-piperidyl)-2-pyridyl]amino]-5-oxo-6H-1,6-naphthyridin-2-yl] benzamide], the IC50 lay within 100 to 1000 nM.

For `CN(C)Cc1ccc(-c2cc(Nc3ccc(N4CCC(O)CC4)cn3)c3c(=O)[nH]ccc3n2)c(F)c1` [I-74, 2-[4-[(dimethyl-amino)methyl]-2-fluoro-phenyl]-4-[[5-(4-hydroxy-1-piperidyl)-2-pyridyl]amino]-6H-1,6-naphthyridin-5-one], the IC50 is at most 100 nM.

For `CN1CCC(c2cc(Nc3ccc(N4CCC(O)CC4)cn3)c3c(=O)[nH]ccc3n2)CC1` [I-75, 4-[[5-(4-hydroxy-1-piperidyl)-2-pyridyl]amino]-2-(1-methyl-4-piperidyl)-6H-1,6-naphthyridin-5-one], the IC50 is at most 100 nM.

With `CC(=O)Nc1ccc(F)c(-c2cc(Nc3ccc(N4CCC(O)CC4)cn3)c3c(=O)[nH]ccc3n2)c1` [I-76, N-[4-fluoro-3-[4-[[5-(4-hydroxy-1-piperidyl)-2-pyridyl]amino]-5-oxo-6H-1,6-naphthyridin-2-yl]phenyl] acetamide], the concentration for half-maximal inhibition (IC50) lay within 100 to 1000 nM.

For the compound `CC(O)(c1cc(Nc2ccc(N3CCC(O)CC3)cn2)c2c(=O)[nH]ccc2n1)C(F)(F)F` (stereo not shown) [I-77, 4-[[5-(4-hydroxy-1-piperidyl)-2-pyridyl]amino]-2-(2,2,2-trifluoro-1-hydroxy-1-methyl-ethyl)-6H-1,6-naphthyridin-5-one], the IC50 is 100 to 1000 nM.

Consider `CC(=O)NC1CCCN(c2cc(Nc3ccc(N4CCC(O)CC4)cn3)c3c(=O)[nH]ccc3n2)C1` (stereo not shown) [I-78, N-[1-[4-[[5-(4-hydroxy-1-piperidyl)-2-pyridyl]amino]-5-oxo-6H-1,6-naphthyridin-2-yl]-3-piperidyl] acetamide], for which the IC50 was above 1000 nM.

In the case of `CN(C)C(=O)c1ccc(F)c(-c2cc(Nc3ccc(N4CCC(O)CC4)cn3)c3c(=O)[nH]ccc3n2)c1` [I-79, 4-fluoro-3-[4-[[5-(4-hydroxy-1-piperidyl)-2-pyridyl]amino]-5-oxo-6H-1,6-naphthyridin-2-yl]-N,N-dimethyl-benzamide], the IC50 was 100 to 1000 nM.

In the case of `O=C(c1ccc(F)c(-c2cc(Nc3ccc(N4CCC(O)CC4)cn3)c3c(=O)[nH]ccc3n2)c1)N1CCOCC1` [I-80, 2-[2-fluoro-5-(morpholine-4-carbonyl)phenyl]-4-[[5-(4-hydroxy-1-piperidyl)-2-pyridyl]amino]-6H-1,6-naphthyridin-5-one], the IC50 fell in the range of 100 to 1000 nM.

For the compound `O=c1[nH]ccc2nc(N3CCC[C@H](O)C3)cc(Nc3ccc(N4CCC(O)CC4)cn3)c12` [I-81, 2-[(3S)-3-hydroxy-1-piperidyl]-4-[[5-(4-hydroxy-1-piperidyl)-2-pyridyl]amino]-6H-1,6-naphthyridin-5-one], the concentration for half-maximal inhibition (IC50) was at most 100 nM.

Consider `O=c1[nH]ccc2nc(N3CCC[C@@H](O)C3)cc(Nc3ccc(N4CCC(O)CC4)cn3)c12` [I-82, 2-[(3R)-3-hydroxy-1-piperidyl]-4-[[5-(4-hydroxy-1-piperidyl)-2-pyridyl]amino]-6H-1,6-naphthyridin-5-one], for which the IC50 lay within 100 to 1000 nM.

In the case of `O=c1[nH]ccc2nc(N3CCCCC3)cc(Nc3ccc(N4CCC(O)CC4)cn3)c12` [I-83, 4-[[5-(4-hydroxy-1-piperidyl)-2-pyridyl]amino]-2-(1-piperidyl)-6H-1,6-naphthyridin-5-one], the IC50 is 100 to 1000 nM.

For the compound `O=c1[nH]ccc2nc(N3CCCC3)cc(Nc3ccc(N4CCC(O)CC4)cn3)c12` [I-84, 4-[[5-(4-hydroxy-1-piperidyl)-2-pyridyl]amino]-2-pyrrolidin-yl-6H-1,6-naphthyridin-5-one], the IC50 lay within 100 to 1000 nM.

`CNC(=O)c1ccc(F)c(-c2cc(Nc3ccc(N4CCC(O)CC4)cn3)c3c(=O)[nH]ccc3n2)c1` [I-85, 4-fluoro-3-[4-[[5-(4-hydroxy-1-piperidyl)-2-pyridyl]amino]-5-oxo-6H-1,6-naphthyridin-2-yl]-N-methyl-benzamide]: the IC50 is 100 to 1000 nM.

For `Cc1cc(F)c(-c2cc(Nc3ccc(N4CCC(O)CC4)cn3)c3c(=O)[nH]ccc3n2)cc1C` [I-86, 2-(2-fluoro-4,5-dimethyl-phenyl)-4-[[5-(4-hydroxy-1-piperidyl)-2-pyridyl]amino]-6H-1,6-naphthyridin-5-one], the IC50 fell in the range of 100 to 1000 nM.

As for `O=c1[nH]ccc2nc(N3CC[C@@H](O)C3)cc(Nc3ccc(N4CCC(O)CC4)cn3)c12` [I-87, 4-[[5-(4-hydroxy-1-piperidyl)-2-pyridyl]amino]-2-[(3R)-3-hydroxy-pyrrolidin-1-yl]-6H-1,6-naphthyridin-5-one], the IC50 is 100 to 1000 nM.

As for `O=c1[nH]ccc2nc(N3CC[C@H](O)C3)cc(Nc3ccc(N4CCC(O)CC4)cn3)c12` [I-88, 4-[[5-(4-hydroxy-1-piperidyl)-2-pyridyl]amino]-2-[(3S)-3-hydroxy-pyrrolidin-1-yl]-6H-1,6-naphthyridin-5-one], the IC50 is at most 100 nM.

Regarding `Cc1c[nH]c(=O)c2c(Nc3ccc(N4CCC(O)CC4)cn3)cc(C(C)C)nc12` [I-89, 4-[[5-(4-hydroxy-1-piperidyl)-2-pyridyl]amino]-2-isopropyl-8-methyl-6H-1,6-naphthyridin-5-one], the half-inhibitory concentration (IC50) is above 1000 nM.

On to `Cc1c[nH]c(=O)c2c(Nc3ccc(N4CCC(O)CC4)cn3)ccnc12` [I-90, 4-[[5-(4-hydroxy-1-piperidyl)-2-pyridyl]amino]-8-methyl-6H-1,6-naphthyridin-5-one], for which the concentration for half-maximal inhibition (IC50) lay in the range of 100 to 1000 nM.

Regarding `COc1ccc(F)c(-c2cc(Nc3ccc(N4CCNCC4)cn3)c3c(=O)[nH]ccc3n2)c1F` [I-91, 2-(2,6-difluoro-3-methoxy-phenyl)-4-[(5-piperazin-1-yl-2-pyridyl)amino]-6H-1,6-naphthyridin-5-one], the IC50 is at most 100 nM.

In the case of `COc1ccc(F)c(-c2cc(Nc3ccc(N4CCC(O)CC4)cn3)c3c(=O)[nH]ccc3n2)c1F` [I-92, 2-(2,6-difluoro-3-methoxyphenyl)-4-((5-(4-hydroxypiperidin-1-yl)pyridin-2-yl)amino)-1,6-naphthyridin-5(6H)-one], the 50% inhibitory concentration (IC50) lay within 100 to 1000 nM.

`O=C(c1ccc(F)c(-c2cc(Nc3ccc(N4CCC(O)CC4)cn3)c3c(=O)[nH]ccc3n2)c1)N1CCCC1` [I-93, 2-[2-fluoro-5-(pyrrolidine-1-carbonyl)phenyl]-4-[[5-(4-hydroxy-1-piperidyl)-2-pyridyl]amino]-6H-1,6-naphthyridin-5-one]: the IC50 is at most 100 nM.

Regarding `O=C(c1ccc(F)c(-c2cc(Nc3ccc(N4CCC(O)CC4)cn3)c3c(=O)[nH]ccc3n2)c1)N1CCCCC1` [I-94, 2-[2-fluoro-5-(piperidine-1-carbonyl)phenyl]-4-[[5-(4-hydroxy-1-piperidyl)-2-pyridyl]amino]-6H-1,6-naphthyridin-5-one], the IC50 is at most 100 nM.

Regarding `O=C(c1ccc(F)c(-c2cc(Nc3ccc(N4CCC(O)CC4)cn3)c3c(=O)[nH]ccc3n2)c1)N1CCC1` [I-95, 2-[5-(azetidine-1-carbonyl)-2-fluoro-phenyl]-4-[[5-(4-hydroxy-1-piperidyl)-2-pyridyl]amino]-6H-1,6-naphthyridin-5-one], the IC50 lay in the range of 100 to 1000 nM.
